Measured values from patent US9174965B2, “Pyrimidinylpiperidinyloxypyridone analogues as GPR119 modulators” (BRISTOL-MYERS SQUIBB COMPANY, priority 2012, dated 2015).
≈ marks a conversion by molar mass, not a printed value.

Columns and labels:
Aqueous solubility assay = assay type: physicochemical; settings: aqueous buffer, thermodynamic from solid; pH 6.5 phosphate buffer, room temperature, 18-24 h
Description: Approximately 0.75 mg of accurately weighed test compound was added to 1 mL of a pH 6.5 phosphate buffer (50 mM Potassium Phosphate Buffer) to make solutions with a nominal targeted concentration of 1 mM. The vial was then rotated on an orbital shaker at room temperature for 18-24 h. After equilibration time had been met, the test solution was centrifuge filtered through a 0.45 um membrane (Millipore Ultrafree Centrifugal Filters, Durapore PVDF 0.45 um). The filtrate was then analyzed by an Agilent HP1100 HPLC/UV at multiple wavelengths using diode array detection (e.g. 210, 230, 254 and 280 nm) against a previously generated calibration curve to determine compound concentration.
(§1) Find below in Table 9 data for compared compounds (See WO 2011/127106 A1).

hERG = hERG (Homo sapiens (Human), UniProt Q12809); assay: Patch clamp electrophysiology assay, hERG; assay type: cell-based; settings: HEK293 cells stably expressing hERG, pH 7.4
Description: (§2) Compound Electrophysiology Assays
(§3) Recombinant ion channels (hERG, sodium [SCN5A], and L-type calcium [Cav1.2]) stably expressed in human embryonic kidney cells (HEK293) are used as test systems, and each system is tested using 2-3 replicates in the conventional patch clamp assay.
(§4) Ion channel membrane current recordings are made with a Multiclamp 700 series integrating patch-clamp amplifier (Axon Instruments, Foster City, Calif.) using the whole-cell variant of the patch-clamp technique.
(§5) Cells expressing hERG, sodium [SCN5A], or L-type calcium [Cav1.2] channels are placed in a plexiglass bath chamber, mounted on the stage of an inverted microscope, and perfused continuously with bath solution. […]
Initially, a current-voltage relationship is generated in the control bath solution using the following voltage protocol. hERG currents are elicited by 2 second step depolarizations applied from a holding potential of −80 mV to test potentials ranging from −70 mV to +60 mV. […] The peak tail current is monitored until a new steady-state in the presence of test article was achieved. This is followed by the application of the next higher concentration of test article to be tested, and is repeated until all concentrations of test article have been evaluated. Effects of test article on hERG channel are calculated by measuring inhibition of peak tail currents. […]

[1] = molecular target: L-type calcium channel Cav1.2 (Homo sapiens (Human), UniProt Q13936); assay: Patch clamp electrophysiology assay, L-type calcium channel; assay type: cell-based; settings: pH 7.35, HEK293, read-out: Ca % Inhibition
Description: as §2, §3, §4, §5
L-type calcium currents are elicited by 200 ms step depolarizations applied from a holding potential of −50 mV to a test potential of +30 mV. The voltage steps are applied in 5 second intervals (0.2 Hz) and the peak inward current is recorded. […] The peak inward current is monitored until a new steady-state in the presence of test article is achieved.
Compounds are tested in 3 cells at each concentration in each ion channel assay. […] All currents were recorded at room temperature ˜25° C. IC50 values are calculated using the sigmoidal concentration-response equation Y=A+((B−A)/(1+((C/X)^D))) in XLfit where A and B are the minimum and maximum % inhibition, C is the IC50 and D is the slope factor. […]

in vitro = settings: human, microsomes, pH 7.4
Description: Metabolic Stability in Liver Microsomes Test
The test compound was received as a 3.5 mM stock solution in 100 percent dimethyl sulfoxide (“DMSO”, Sigma Aldritch). The compound solution was diluted to create a 50 μM acetonitrile (“ACN”, Sigma Aldritch) solution containing 1.4% DMSO, which is then used as a 100-fold stock for incubation with microsomes. The test compound, β-nicotinamide adenine dinucleotide phosphate (“NADPH”, AppliChem Inc.) and liver microsome solutions are combined for incubation in three steps:
1) 450 μl of liver microsome suspension, protein concentration of 1.1 mg/ml in 100 mM sodium (+)/phosphate (“NaPi”, pH 7.4, Sigma Aldritch) buffer, 5 mM magnesium chloride (“MgCl2, Sigma Aldritch) buffer, is pre-warmed at 37° C.;
2) 5 μl of 50 μM test compound (98.6% ACN, 1.4% DMSO) is added to the same tube and pre-incubated at 37° C. for 5 minutes; and
3) The reaction is initiated by the addition of 50 μl of pre-warmed 10 mM NADPH solution in 100 mM NaPi, pH 7.4.
Reaction components are mixed well and then 65 μl are immediately transferred into 130 μl quench/stop solution (zero-time point, T0). The reactions are incubated at 37° C. for 5, 10, 15, 30 and 45 minutes and at each time-point a 65 μl aliquot is transferred into 130 μl of quench solution. ACN containing Internal Standard (100 ng/ml), is used as the quench solution to terminate metabolic reactions. The quenched mixtures are centrifuged at 1500 rpm (˜500×g) in an Allegra X-12 centrifuge, SX4750 rotor (Beckman Coulter Inc., Fullerton, Calif.) for fifteen minutes to pellet denatured microsomes. A volume of 90 μl of supernatant extract, containing the mixture of parent compound and its metabolites, is then transferred to a separate 96-well plate for LC/MS-MS analysis to determine the percent of parent compound that is remaining in the mixture. Peak integration is performed on all samples using the Hepatic Clearance Calculator of QuickCalc by Gubbs, Inc. The percent remaining calculation is performed by comparing the LC-MS/MS peak areas from the samples at each time point to those from the T0 samples for each compound. T1/2 values are calculated from linear regression of the LN (% Remaining) over time, and the slope of that regression (Kel) is used to calculate T1/2, using the following equation: T1/2=−0.693/Kel.

FaSSIF solubility assay = assay type: physicochemical; settings: thermodynamic from solid, FaSSIF buffer, 37° C.
Description: Approximately 5-10 mg of accurately weighed test compound was transferred to a glass vial containing 4 mL of a FaSSIF buffer (PharesAG, prepared according to manufactures protocol). The vial was then rotated at 37° C. for 24 h. After equilibration time had been met, the test solution was centrifuge filtered through a 0.45 um PTFE membrane filter. The filtrate was then analyzed by HPLC/UV against a set of standard injections to determine compound concentration.
as §1

Chain of L-type calcium channel Cav1.2 (Q13936 whole entry): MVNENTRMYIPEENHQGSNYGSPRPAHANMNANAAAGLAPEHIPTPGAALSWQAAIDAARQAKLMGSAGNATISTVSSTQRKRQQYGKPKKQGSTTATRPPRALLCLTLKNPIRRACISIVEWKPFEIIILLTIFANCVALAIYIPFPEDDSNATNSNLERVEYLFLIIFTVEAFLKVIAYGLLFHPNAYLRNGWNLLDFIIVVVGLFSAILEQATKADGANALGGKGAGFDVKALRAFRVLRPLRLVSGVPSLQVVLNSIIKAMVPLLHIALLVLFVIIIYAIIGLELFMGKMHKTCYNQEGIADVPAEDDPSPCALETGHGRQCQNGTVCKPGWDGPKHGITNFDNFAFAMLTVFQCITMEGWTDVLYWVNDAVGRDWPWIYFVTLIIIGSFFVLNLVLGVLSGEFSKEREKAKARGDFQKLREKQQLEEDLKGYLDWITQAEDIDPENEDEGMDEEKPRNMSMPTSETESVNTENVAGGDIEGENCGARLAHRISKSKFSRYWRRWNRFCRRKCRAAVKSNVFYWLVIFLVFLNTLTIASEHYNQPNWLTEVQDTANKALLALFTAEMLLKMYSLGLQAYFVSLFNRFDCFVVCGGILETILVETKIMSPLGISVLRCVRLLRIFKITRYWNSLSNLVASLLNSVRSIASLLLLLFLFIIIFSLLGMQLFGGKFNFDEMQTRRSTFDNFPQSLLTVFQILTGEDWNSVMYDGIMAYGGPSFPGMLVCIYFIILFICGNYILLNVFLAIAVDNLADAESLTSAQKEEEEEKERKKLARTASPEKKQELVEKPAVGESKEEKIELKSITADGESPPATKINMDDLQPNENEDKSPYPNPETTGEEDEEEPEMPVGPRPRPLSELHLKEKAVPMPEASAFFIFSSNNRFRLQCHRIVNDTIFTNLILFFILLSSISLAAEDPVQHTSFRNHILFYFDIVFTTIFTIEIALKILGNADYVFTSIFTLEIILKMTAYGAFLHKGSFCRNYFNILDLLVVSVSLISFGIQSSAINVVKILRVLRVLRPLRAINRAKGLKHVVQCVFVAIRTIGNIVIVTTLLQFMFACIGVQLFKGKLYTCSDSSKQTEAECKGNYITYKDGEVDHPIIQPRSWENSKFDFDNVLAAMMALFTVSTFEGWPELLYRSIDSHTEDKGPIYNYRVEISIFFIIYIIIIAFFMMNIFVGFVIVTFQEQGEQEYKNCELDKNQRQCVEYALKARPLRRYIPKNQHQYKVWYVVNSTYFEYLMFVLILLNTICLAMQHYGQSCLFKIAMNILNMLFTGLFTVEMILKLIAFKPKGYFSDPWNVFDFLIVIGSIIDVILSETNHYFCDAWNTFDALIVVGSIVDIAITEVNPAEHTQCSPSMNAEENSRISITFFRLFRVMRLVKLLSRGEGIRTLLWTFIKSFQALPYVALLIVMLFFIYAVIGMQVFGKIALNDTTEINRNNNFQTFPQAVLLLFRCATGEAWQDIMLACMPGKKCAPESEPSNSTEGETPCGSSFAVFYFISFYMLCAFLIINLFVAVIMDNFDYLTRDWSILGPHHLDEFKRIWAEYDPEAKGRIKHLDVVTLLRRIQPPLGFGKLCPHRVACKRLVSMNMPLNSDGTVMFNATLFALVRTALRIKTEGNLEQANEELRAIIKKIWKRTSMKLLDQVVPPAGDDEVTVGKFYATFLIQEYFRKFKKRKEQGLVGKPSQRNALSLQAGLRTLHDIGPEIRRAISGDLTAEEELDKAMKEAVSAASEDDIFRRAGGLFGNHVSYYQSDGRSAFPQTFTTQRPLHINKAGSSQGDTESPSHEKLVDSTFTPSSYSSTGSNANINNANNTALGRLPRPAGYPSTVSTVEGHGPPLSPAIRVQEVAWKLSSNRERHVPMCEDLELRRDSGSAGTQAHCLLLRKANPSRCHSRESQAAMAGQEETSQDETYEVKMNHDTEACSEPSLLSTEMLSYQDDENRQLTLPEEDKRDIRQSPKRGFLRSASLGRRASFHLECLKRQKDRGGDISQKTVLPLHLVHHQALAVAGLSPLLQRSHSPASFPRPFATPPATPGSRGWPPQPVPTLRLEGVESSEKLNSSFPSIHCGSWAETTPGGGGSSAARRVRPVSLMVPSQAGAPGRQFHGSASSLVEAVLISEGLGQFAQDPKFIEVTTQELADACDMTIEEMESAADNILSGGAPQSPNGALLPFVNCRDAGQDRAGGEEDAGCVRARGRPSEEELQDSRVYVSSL
Chain of L-type calcium channel Cav1.2 (Q08289 whole entry partner): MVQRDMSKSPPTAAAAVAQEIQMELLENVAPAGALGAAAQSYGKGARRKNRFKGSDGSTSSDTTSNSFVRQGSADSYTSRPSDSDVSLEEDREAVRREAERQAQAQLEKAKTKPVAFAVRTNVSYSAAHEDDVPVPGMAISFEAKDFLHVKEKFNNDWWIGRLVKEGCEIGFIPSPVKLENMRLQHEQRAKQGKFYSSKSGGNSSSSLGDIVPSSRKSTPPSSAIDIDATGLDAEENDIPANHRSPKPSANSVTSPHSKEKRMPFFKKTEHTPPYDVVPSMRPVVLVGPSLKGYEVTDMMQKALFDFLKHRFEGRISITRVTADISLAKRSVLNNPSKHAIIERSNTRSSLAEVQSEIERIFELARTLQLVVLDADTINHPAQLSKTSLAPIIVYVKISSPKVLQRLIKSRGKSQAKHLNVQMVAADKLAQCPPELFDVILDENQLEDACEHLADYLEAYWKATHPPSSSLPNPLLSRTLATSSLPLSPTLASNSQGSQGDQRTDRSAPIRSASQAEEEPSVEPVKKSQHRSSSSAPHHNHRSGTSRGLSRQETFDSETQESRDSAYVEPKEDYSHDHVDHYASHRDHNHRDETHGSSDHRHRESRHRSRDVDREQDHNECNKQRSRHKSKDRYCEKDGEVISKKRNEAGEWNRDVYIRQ
Chain of L-type calcium channel Cav1.2 (P54289 25-1103 partner): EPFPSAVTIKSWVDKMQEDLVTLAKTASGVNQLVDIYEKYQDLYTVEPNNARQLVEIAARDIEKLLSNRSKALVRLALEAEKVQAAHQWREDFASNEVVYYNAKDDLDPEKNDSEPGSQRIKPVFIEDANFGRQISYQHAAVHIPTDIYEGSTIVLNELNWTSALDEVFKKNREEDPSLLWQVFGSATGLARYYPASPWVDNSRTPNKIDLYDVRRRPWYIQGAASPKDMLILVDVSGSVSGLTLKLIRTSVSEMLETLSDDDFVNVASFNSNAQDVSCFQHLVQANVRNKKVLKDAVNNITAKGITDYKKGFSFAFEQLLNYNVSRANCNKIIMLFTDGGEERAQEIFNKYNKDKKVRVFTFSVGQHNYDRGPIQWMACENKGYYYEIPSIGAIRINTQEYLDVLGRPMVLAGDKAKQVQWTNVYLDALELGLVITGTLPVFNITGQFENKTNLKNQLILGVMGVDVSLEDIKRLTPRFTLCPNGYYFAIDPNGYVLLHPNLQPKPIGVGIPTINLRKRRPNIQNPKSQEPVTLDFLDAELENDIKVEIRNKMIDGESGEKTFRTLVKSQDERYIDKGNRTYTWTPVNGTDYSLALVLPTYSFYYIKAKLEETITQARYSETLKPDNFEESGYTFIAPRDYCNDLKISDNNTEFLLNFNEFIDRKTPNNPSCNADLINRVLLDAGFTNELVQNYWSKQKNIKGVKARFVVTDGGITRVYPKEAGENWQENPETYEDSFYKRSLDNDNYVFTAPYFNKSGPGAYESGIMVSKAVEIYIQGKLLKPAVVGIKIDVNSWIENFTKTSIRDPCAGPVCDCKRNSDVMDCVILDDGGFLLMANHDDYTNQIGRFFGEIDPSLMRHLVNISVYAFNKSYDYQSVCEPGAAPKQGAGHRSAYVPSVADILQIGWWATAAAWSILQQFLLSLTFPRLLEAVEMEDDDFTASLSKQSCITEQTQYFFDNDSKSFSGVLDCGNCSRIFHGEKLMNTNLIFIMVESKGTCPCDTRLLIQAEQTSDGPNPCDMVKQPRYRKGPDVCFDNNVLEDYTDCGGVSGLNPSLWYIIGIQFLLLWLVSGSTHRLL
Chain of hERG (Q12809 whole entry): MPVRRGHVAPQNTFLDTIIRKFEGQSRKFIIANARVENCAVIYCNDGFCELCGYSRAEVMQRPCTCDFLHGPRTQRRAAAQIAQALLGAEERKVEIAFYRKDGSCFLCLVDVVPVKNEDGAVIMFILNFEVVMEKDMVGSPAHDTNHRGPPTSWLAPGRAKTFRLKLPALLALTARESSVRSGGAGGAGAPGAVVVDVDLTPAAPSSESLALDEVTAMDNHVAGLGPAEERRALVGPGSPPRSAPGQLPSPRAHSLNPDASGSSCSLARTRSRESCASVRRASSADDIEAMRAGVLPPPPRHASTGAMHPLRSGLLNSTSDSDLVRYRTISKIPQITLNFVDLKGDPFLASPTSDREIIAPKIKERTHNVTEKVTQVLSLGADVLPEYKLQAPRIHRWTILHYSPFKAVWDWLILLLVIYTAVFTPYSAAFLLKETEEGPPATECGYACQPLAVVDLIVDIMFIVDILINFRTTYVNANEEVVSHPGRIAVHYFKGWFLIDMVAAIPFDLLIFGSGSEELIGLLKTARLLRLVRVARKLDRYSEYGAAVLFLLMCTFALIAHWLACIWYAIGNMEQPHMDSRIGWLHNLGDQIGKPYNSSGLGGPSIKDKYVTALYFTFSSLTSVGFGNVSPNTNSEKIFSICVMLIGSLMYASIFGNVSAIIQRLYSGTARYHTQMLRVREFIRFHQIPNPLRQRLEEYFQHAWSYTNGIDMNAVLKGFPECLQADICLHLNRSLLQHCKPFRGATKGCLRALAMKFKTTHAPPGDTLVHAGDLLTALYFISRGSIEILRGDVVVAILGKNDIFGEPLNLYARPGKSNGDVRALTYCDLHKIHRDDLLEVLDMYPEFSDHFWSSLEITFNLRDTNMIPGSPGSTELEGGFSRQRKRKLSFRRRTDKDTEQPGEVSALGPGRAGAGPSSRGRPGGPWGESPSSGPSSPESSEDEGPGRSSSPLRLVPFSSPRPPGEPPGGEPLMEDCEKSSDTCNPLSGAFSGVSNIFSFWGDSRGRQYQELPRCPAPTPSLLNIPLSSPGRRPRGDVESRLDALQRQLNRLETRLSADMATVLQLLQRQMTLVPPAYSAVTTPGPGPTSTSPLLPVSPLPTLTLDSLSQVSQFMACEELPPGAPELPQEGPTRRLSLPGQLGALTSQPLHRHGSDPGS

SMILES | solubility (Aqueous solubility assay) | inhibition at 30 µM (hERG) | inhibition at 10 µM [1] | half-life at 0.5 µM (in vitro) | solubility at 24 h (FaSSIF solubility assay)
Cc1nc(-n2cc(Cl)c(OC3CCN(c4ncc(Cl)cn4)CC3)cc2=O)ccc1N1CC[C@H](O)C1=O [Example 3, (S)-5-chloro-4-((1-(5-chloropyrimidin-2-yl)piperidin-4-yl)oxy)-5′-(3-hydroxy-2-oxopyrrolidin-1-yl)-6′-methyl-2H-[1,2′-bipyridin]-2-one] | 1 µg/mL (≈ 1.88 µM) | 33% | 9% | 1.3 h | 
Cc1nc(-n2cc(Cl)c(OC3CCN(c4ncc(Cl)cn4)CC3)cc2=O)ccc1N1CC[C@@H](O)C1=O [Example 4, (R)-5-chloro-4-((1-(5-chloropyrimidin-2-yl)piperidin-4-yl)oxy)-5′-(3-hydroxy-2-oxopyrrolidin-1-yl)-6′-methyl-2H-[1,2′-bipyridin]-2-one] | 2 µg/mL (≈ 3.76 µM) | 40% | 7% | 1.62 h | 11 µg/mL (≈ 20.7 µM)
